Data as given in patent US20250368666A1, “INDAZOLE COMPOUNDS” (TYRA BIOSCIENCES, INC., priority 2022, published 2025).

What was measured:
[1] = test system: MDA-MB-453 cell line (FGFR4-Y367C); assay: Cancer cell line cell viability assay (Cell Titer-Glo), 120 hr; format: cell-based; settings: Homo sapiens
In short: (§1)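 5,000-20,000 cells/well o/n; cpd 9-pt 4x dil from 3 μM, n=3; 37° C/5% CO2; CTG 2.0 lumi; % DMSO ctrl; 4PL IC50.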

[2] = test system: HuH7 cell line (FGF19 amplification); assay: as above; format: cell-based; settings: Homo sapiens, Huh-7
In short: as §1

[3] = target: T1, FGFR1 (Homo sapiens, UniProt P11362); assay: Kinase binding assay (kinase-tagged T7 phage, affinity beads, qPCR), Kd; settings: read-out: FGFR1 (Kd nM)
T1 construct: made in house; host or cells: E. coli (BL21-derived), T7 phage
T1 sequence (P11362 22-822): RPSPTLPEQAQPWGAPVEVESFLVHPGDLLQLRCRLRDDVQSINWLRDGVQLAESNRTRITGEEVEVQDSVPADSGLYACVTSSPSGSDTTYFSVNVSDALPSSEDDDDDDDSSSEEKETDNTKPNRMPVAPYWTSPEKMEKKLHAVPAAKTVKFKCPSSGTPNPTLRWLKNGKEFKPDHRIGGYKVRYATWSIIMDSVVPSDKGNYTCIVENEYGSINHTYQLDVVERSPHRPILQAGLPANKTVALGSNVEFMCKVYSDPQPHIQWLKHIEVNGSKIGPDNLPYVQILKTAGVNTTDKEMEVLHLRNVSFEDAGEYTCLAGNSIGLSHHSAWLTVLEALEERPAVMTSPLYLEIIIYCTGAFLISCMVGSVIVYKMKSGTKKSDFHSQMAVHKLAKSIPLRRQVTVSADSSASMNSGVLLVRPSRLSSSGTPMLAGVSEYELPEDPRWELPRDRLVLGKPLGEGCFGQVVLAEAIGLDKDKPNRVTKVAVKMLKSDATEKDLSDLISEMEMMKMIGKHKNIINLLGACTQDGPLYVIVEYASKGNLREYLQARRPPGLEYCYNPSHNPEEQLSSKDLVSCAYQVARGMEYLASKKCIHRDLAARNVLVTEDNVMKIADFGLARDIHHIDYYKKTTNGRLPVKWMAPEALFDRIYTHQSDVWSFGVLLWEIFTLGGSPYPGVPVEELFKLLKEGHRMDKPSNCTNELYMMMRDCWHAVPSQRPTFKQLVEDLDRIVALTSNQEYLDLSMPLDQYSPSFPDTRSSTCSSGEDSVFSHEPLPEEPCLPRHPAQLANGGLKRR
In short: (§2)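 Phage-tagged kinase capture on small-molecule affinity resin, compound competition, qPCR quantitation; Kd from Levenberg-Marquardt Hill fit.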

[4] = target: T2, FGFR3 (Homo sapiens, UniProt P22607); assay: as above; settings: read-out: FGFR3 (Kd nM)
T2 construct: made in house; host or cells: E. coli (BL21-derived), T7 phage
T2 sequence (P22607 23-806): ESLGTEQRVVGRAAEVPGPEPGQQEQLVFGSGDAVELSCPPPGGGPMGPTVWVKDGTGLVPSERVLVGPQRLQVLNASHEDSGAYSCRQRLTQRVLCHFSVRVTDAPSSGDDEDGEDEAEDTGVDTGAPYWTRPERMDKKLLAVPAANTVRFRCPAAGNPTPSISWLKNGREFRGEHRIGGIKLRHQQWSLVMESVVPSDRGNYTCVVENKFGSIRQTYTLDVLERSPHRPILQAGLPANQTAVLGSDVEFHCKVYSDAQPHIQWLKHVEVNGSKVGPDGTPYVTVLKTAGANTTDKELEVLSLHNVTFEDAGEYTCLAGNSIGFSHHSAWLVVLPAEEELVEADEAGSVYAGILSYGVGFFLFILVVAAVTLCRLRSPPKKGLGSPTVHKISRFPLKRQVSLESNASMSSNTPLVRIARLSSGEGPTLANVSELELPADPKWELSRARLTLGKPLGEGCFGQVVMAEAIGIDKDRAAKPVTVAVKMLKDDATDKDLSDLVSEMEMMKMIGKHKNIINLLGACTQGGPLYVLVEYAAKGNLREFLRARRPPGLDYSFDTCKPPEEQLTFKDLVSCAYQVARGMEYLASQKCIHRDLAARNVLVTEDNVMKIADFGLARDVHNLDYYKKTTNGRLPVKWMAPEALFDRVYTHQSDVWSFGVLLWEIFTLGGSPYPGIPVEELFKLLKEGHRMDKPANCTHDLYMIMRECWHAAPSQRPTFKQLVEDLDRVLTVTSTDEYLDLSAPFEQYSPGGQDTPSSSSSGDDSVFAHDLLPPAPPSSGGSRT
In short: as §2

[5] = target: T3, FGFR2 (Homo sapiens, UniProt P21802); assay: as above; settings: read-out: FGFR2 (Kd nM)
T3 construct: made in house; host or cells: E. coli (BL21-derived), T7 phage
T3 sequence (P21802 22-821): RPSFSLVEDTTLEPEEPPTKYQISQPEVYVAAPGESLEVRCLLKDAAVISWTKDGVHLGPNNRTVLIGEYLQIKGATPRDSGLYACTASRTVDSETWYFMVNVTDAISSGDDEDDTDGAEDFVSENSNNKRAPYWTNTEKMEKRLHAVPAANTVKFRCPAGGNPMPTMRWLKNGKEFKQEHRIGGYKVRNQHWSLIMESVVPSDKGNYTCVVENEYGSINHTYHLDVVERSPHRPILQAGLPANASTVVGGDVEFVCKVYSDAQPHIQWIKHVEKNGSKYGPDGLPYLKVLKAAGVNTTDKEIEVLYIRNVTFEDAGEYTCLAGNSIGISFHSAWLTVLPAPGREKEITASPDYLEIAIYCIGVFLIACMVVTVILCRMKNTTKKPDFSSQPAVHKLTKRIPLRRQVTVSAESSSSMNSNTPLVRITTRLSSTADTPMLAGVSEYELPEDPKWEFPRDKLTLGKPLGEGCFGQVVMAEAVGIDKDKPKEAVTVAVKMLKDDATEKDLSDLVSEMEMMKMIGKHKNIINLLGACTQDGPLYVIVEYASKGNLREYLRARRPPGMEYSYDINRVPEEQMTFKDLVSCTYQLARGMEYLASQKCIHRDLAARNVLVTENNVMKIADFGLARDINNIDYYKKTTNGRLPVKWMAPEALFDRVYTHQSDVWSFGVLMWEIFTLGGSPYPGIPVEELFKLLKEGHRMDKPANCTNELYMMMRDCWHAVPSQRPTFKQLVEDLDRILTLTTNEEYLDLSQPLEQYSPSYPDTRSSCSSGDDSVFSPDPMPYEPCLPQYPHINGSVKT
In short: as §2

[6] = target: T4, FGFR3 (V555M) (Homo sapiens, UniProt P22607, V555M); assay: as above; settings: V555M mutant; read-out: FGFR3 (V555M) (Kd nM)
T4 construct: made in house; host or cells: E. coli (BL21-derived), T7 phage
T4 sequence (P22607 23-806 V555M): as the sequence (P22607 23-806) above, with V533M counted along it
In short: as §2

[7] = target: T5, FGFR4 (Homo sapiens, UniProt P22455); assay: as above; settings: read-out: FGFR4 (Kd nM)
T5 construct: made in house; host or cells: E. coli (BL21-derived), T7 phage
T5 sequence (P22455 22-802): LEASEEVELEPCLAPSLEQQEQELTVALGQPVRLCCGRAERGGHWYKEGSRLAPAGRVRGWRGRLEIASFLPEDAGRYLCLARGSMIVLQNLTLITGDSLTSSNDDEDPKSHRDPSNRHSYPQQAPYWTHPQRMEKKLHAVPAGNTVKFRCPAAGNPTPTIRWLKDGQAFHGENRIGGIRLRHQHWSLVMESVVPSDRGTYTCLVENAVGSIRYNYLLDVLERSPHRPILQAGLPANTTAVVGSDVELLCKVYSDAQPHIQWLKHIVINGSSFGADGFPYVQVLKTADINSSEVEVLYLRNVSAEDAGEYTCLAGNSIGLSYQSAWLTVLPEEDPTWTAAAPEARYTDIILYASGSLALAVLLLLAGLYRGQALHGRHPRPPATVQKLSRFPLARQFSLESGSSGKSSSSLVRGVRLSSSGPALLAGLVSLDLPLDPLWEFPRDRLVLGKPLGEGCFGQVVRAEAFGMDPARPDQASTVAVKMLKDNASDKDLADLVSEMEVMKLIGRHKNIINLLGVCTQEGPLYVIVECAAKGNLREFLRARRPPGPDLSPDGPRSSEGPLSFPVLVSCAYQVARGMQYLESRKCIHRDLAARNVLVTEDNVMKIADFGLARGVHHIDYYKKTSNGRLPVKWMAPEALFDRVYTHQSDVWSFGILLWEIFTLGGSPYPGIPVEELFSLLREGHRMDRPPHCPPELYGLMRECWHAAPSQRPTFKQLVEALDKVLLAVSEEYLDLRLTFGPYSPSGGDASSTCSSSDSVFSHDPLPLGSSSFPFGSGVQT
In short: as §2

[8] = test system: KATO-III cell line (FGFR2 amplification); assay: Cancer cell line cell viability assay (Cell Titer-Glo), 72 hr; format: cell-based; settings: Homo sapiens, KATO III
In short: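 Cells seeded at 5,000-20,000/well, incubated overnight, then treated with a 9-dose, 4-fold dilution series from 3 μM in triplicate at 37° C, 5% CO2. Viability read by Cell Titer-Glo 2.0 luminescence as percent of DMSO control; IC50 from 4-parameter variable-slope sigmoidal fit.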

[9] = test system: KG-1 cell line (FGFR 1-fusion); assay: as above; format: cell-based; settings: Homo sapiens, KG-1, KG-1 cell line (FGFR1-fusion)
In short: as §1

[10] = test system: RT112/84 cell line (FGFR3-fusion); assay: as above; format: cell-based; settings: Homo sapiens, RT112/84, RT112/84 cell line (FGFR3-fusion)
In short: as §1

Structure (SMILES)	IC50 [1]	IC50 [2]	Kd [3]	Kd [4]	Kd [5]	Kd [6]	Kd [7]	IC50 [8]	IC50 [9]	IC50 [10]
COc1cc2[nH]nc(-c3cnc(N4CC(C)(CP(C)(C)=O)C4)c(C#N)c3)c2cc1O[C@H](C)c1c(Cl)cncc1Cl [Example 53, (R)-5-(5-(1-(3,5-Dichloropyridin-4-yl)ethoxy)-6-methoxy-1H-indazol-3-yl)-2-(3-((dimethylphosphoryl)methyl)-3-methylazetidin-1-yl)nicotinonitrile]	0.1 to 50 nM	0.1 to 50 nM	1 to 50 nM	1 to 50 nM	1 to 50 nM	1 to 50 nM	1 to 50 nM	50 to 200 nM	200 to 1000 nM	50 to 200 nM
COc1cc2[nH]nc(-c3cnc(N4CC(C)(NCC(C)(C)O)C4)c(C#N)c3)c2cc1O[C@H](C)c1c(Cl)cncc1Cl [Example 55, (R)-5-(5-(1-(3,5-dichloropyridin-4-yl)ethoxy)-6-methoxy-1H-indazol-3-yl)-2-(3-((2-hydroxy-2-methylpropyl)amino)-3-methylazetidin-1-yl)nicotinonitrile]	0.1 to 50 nM	0.1 to 50 nM	1 to 50 nM	1 to 50 nM	1 to 50 nM	1 to 50 nM	1 to 50 nM	50 to 200 nM	50 to 200 nM	0.1 to 50 nM
C[C@@H](Oc1ccc2[nH]nc(-c3cnc(N4CC(C)(N5CCOCC5)C4)c(F)c3)c2c1)c1c(Cl)cncc1Cl [Example 80, (R)-4-(1-(5-(5-(1-(3,5-Dichloropyridin-4-yl)ethoxy)-1H-indazol-3-yl)-3-fluoropyridin-2-yl)-3-methylazetidin-3-yl)morpholine]	0.1 to 50 nM	0.1 to 50 nM	1 to 50 nM	1 to 50 nM	1 to 50 nM	1 to 50 nM	1 to 50 nM	0.1 to 50 nM	50 to 200 nM	0.1 to 50 nM
C[C@@H](Oc1ccc2[nH]nc(-c3cnc(N4CC(C)(N(C)C)C4)c(F)c3)c2c1)c1c(Cl)cncc1Cl [Example 81, (R)-1-(5-(5-(1-(3,5-dichloropyridin-4-yl)ethoxy)-1H-indazol-3-yl)-3-fluoropyridin-2-yl)-N,N,3-trimethylazetidin-3-amine]	0.1 to 50 nM	0.1 to 50 nM	1 to 50 nM	1 to 50 nM	1 to 50 nM	1 to 50 nM	1 to 50 nM	50 to 200 nM	50 to 200 nM	0.1 to 50 nM
CC[C@@H](C)NC1(C)CN(c2ncc(-c3n[nH]c4ccc(O[C@H](C)c5c(Cl)cncc5Cl)cc34)cc2F)C1 [Example 140, 1-[5-[5-[(1R)-1-(3,5-dichloro-4-pyridyl)ethoxy]-1H-indazol-3-yl]-3-fluoro-2-pyridyl]-3-methyl-N-[(1R)-1-methylpropyl]azetidin-3-amine]	50 to 200 nM	0.1 to 50 nM	1 to 50 nM	1 to 50 nM	1 to 50 nM	1 to 50 nM	1 to 50 nM	50 to 200 nM	50 to 200 nM	0.1 to 50 nM
CC[C@H](C)NC1(C)CN(c2ncc(-c3n[nH]c4ccc(O[C@H](C)c5c(Cl)cncc5Cl)cc34)cc2F)C1 [Example 141, 1-[5-[5-[(1R)-1-(3,5-dichloro-4-pyridyl)ethoxy]-1H-indazol-3-y1]-3-fluoro-2-pyridyl]-3-methyl-N-[(1S)-1-methylpropyl]azetidin-3-amine]	50 to 200 nM	0.1 to 50 nM	1 to 50 nM	1 to 50 nM	1 to 50 nM	1 to 50 nM	1 to 50 nM	50 to 200 nM	50 to 200 nM	0.1 to 50 nM
CCCNC1(C)CN(c2ncc(-c3n[nH]c4ccc(O[C@H](C)c5c(Cl)cncc5Cl)cc34)cc2F)C1 [Example 142, 1-[5-[5-[(1R)-1-(3,5-dichloro-4-pyridyl)ethoxy]-1H-indazol-3-yl]-3-fluoro-2-pyridyl]-3-methyl-N-propyl-azetidin-3-amine]	50 to 200 nM	0.1 to 50 nM	1 to 50 nM	1 to 50 nM	1 to 50 nM	1 to 50 nM	1 to 50 nM	50 to 200 nM	50 to 200 nM	0.1 to 50 nM
C=CCNC1(C)CN(c2ncc(-c3n[nH]c4ccc(O[C@H](C)c5c(Cl)cncc5Cl)cc34)cc2F)C1 [Example 148, (R)-N-ally1-1-(5-(5-(1-(3,5-dichloropyridin-4-yl)ethoxy)-1H-indazol-3-yl)-3-fluoropyridin-2-yl)-3-methylazetidin-3-amine]	50 to 200 nM	0.1 to 50 nM	1 to 50 nM	1 to 50 nM	1 to 50 nM	1 to 50 nM	1 to 50 nM	50 to 200 nM	50 to 200 nM	0.1 to 50 nM
C[C@@H](Oc1ccc2[nH]nc(-c3cnc(N4CC(C)(N5CCP(C)(=O)CC5)C4)c(F)c3)c2c1)c1c(Cl)cncc1Cl [Example 198, (R)-1-(1-(5-(5-(1-(3,5-dichloropyridin-4-yl)ethoxy)-1H-indazol-3-yl)-3-fluoropyridin-2-yl)-3-methylazetidin-3-yl)-4-methyl-1,4-azaphosphinane 4-oxide]	0.1 to 50 nM	0.1 to 50 nM	1 to 50 nM	1 to 50 nM	1 to 50 nM	1 to 50 nM	1 to 50 nM	0.1 to 50 nM	200 to 1000 nM	0.1 to 50 nM
C[C@@H](Oc1ccc2[nH]nc(-c3cnc(N4CC(C)(CS(C)(=O)=O)C4)c(F)c3)c2c1)c1c(Cl)cncc1Cl [Example 199, (R)-5-(1-(3,5-dichloropyridin-4-yl)ethoxy)-3-(5-fluoro-6-(3-methyl-3-((methyl-sulfonyl)meth-yl)azetidin-1-yl)pyridin-3-yl)-1H-indazole]	0.1 to 50 nM	0.1 to 50 nM	1 to 50 nM	1 to 50 nM	1 to 50 nM	1 to 50 nM	1 to 50 nM	50 to 200 nM	50 to 200 nM	0.1 to 50 nM
C[C@@H](Oc1ccc2[nH]nc(-c3ccc(N4C[C@@H](CS(C)(=O)=O)[C@@H]4C)nc3)c2c1)c1c(Cl)cncc1Cl [Example 203, 5-((R)-1-(3,5-dichloropyridin-4-yl)ethoxy)-3-(6-((2S,3R)-2-methyl-3-((methyl-sulfonyl)meth-yl)azetidin-1-yl)pyridin-3-yl)-1H-indazole]	50 to 200 nM	0.1 to 50 nM	1 to 50 nM	1 to 50 nM	1 to 50 nM	1 to 50 nM	1 to 50 nM	0.1 to 50 nM	50 to 200 nM	0.1 to 50 nM
C[C@@H]1[C@@H](CS(C)(=O)=O)CN1c1ccc(-c2n[nH]c3ccc(O[C@H](C)c4c(Cl)cncc4Cl)cc23)cn1 [Example 204, 5-((R)-1-(3,5-dichloropyridin-4-yl)ethoxy)-3-(6-((2R,3S)-2-methyl-3-((methyl-sulfonyl)meth-yl)azetidin-1-yl)pyridin-3-yl)-1H-indazole]	50 to 200 nM	0.1 to 50 nM	1 to 50 nM	1 to 50 nM	1 to 50 nM	1 to 50 nM	1 to 50 nM	0.1 to 50 nM	50 to 200 nM	0.1 to 50 nM
